This note sets out measurements from ChEMBL document CHEMBL4261612, “Designing dichlorobinaphthoquinone as a prooxidative anticancer agent based on hydrogen peroxide-responsive in situ production of hydroxyl radicals” (Eur J Med Chem, 2018).

Series [1] relates to A549. Briefly: Induction of hydrogen peroxide-responsive hydroxyl radicals generation in human A549 cells at 7.5 uM pretreated for 3 hrs followed by 2 uM rhodamine nitroxide probe 3 addition and measured after 12 hrs by fluorescence imaging assay. It counts as functional, cell-based.
The test system of series [2] is HepG2. Nature of the series: Cytotoxicity against human HepG2 cells assessed as reduction in cell viability after 48 hrs by MTT assay. The format is functional, cell-based. The note with it: HepG2, 48 h. (In general: Tetrazolium dyes change colour on reduction, which living cells bring about.)
Series [3] can be described thus: Induction of hydroxyl radicals generation assessed as methyl radical formation by measuring DMPO/CH3 radical level at 50 uM in presence of H2O2 measured after 5 mins by ESR spectral analysis based EPR secondary radical spin-trapping method. It counts as functional.
Series [4] relates to A549. Briefly: Cytotoxicity against human A549 cells assessed as reduction in cell viability after 48 hrs by MTT assay. The format is functional, cell-based. The note with it: A549, 48 h.
Series [5] has as its system L02. Nature of the series: Cytotoxicity against human LO2 cells assessed as reduction in cell viability after 48 hrs by MTT assay. It counts as cell-based. The note with it: for IC50: Homo sapiens, L02, 48 h.
For series [6], the system named is A549. Nature of the series: Induction of hydrogen peroxide-responsive hydroxyl radicals generation in human A549 cells at 7.5 uM pretreated for 3 hrs followed by 20 uM coumarin-cyanine probe 1 addition and measured after 0.5 hrs by fluorescence imaging assay. The format is functional, cell-based.
Series [7] can be described thus: Induction of hydroxyl radicals generation assessed as DMPO/hydroxyl radical level at 50 uM in presence of H2O2 measured after 5 mins by ESR spectral analysis based EPR secondary radical spin-trapping method. It counts as functional.
Series [8] relates to A549. Briefly: Cytotoxicity against human A549 cells assessed as induction of hydrogen peroxide-responsive hydroxyl radicals-mediated cell killing by measuring cell viability at 62.5 uM preincubated for 3 hrs followed by 50 uM H2O2 treatment for 45 mins and measured after 48 hrs by MTT assay (reference value: 75.8%). It counts as functional.
For series [9], the system named is A549. Nature of the series: Induction of hydrogen peroxide-responsive hydroxyl radicals generation in human A549 cells at 2.5 to 7.5 uM pretreated for 3 hrs followed by 20 uM coumarin-cyanine probe 1 addition and measured after 0.5 hrs by fluorescence imaging assay. The format is functional, cell-based.
The test system of series [10] is A549. Briefly: Induction of hydrogen peroxide-responsive hydroxyl radicals generation in human A549 cells at 2.5 to 7.5 uM pretreated for 3 hrs followed by 2 uM rhodamine nitroxide probe 3 addition and measured after 12 hrs by fluorescence imaging assay. It counts as functional, cell-based.
The subject of series [11] is L02. Briefly: Induction of hydrogen peroxide-responsive hydroxyl radicals generation in human LO2 cells at 7.5 uM pretreated for 3 hrs followed by 20 uM coumarin-cyanine probe 1 addition and measured after 0.5 hrs in presence of catalase by fluorescence imaging assay. The format is cell-based. The note with it: l02, 0.5 h.
Series [12] has as its system L02. Nature of the series: Cytotoxicity against human LO2 cells assessed as induction of hydrogen peroxide-responsive hydroxyl radicals-mediated cell killing by measuring cell viability at 62.5 uM preincubated for 3 hrs followed by 100 uM H2O2 treatment for 45 mins and measured after 48 hrs by MTT assay. It counts as cell-based. The note with it: l02, 62.5 µM.
Series [13] has as its system A549. Briefly: Cytotoxicity against human A549 cells assessed as reduction in cell viability co-treated with alpha-tocopherol after 48 hrs by MTT assay. It counts as functional, cell-based.
Series [14] deals with A549. Briefly: Induction of hydrogen peroxide-responsive hydroxyl radicals generation in human A549 cells at 7.5 uM pretreated for 3 hrs followed by 20 uM coumarin-cyanine probe 1 addition and measured after 0.5 hrs in presence of catalase by fluorescence imaging assay. The format is functional, cell-based.

Active and inactive are the calls of the source. The rule behind the calls is not given here.

For `O=C1C=C(C2=CC(=O)c3ccccc3C2=O)C(=O)c2ccccc21`, the result in series [1], in [3], in [6] and in series [7] was inactive. The IC50 in series [2], in series [4] and in series [5] was above 10 µM each time.
For `O=C1C(Cl)=C(C2=C(Cl)C(=O)c3ccccc3C2=O)C(=O)c2ccccc21`, the Activity in series [8] is given as 52.6%; in [11], “Non-Toxic”; in [12] it was “Non-Toxic”; in [5] (human, l02, 48 h), “Non-Toxic”. In addition, the IC50 (commonly the midpoint of a concentration-inhibition curve) in [2] is 2.29 µM; in [4], 2.14 µM; in series [5], above 10 µM. The result in [3], in series [9], in series [10], in [13] and in series [7] was Active. For the same compound, the outcome in series [14] was inactive.
As for `O=C1C(O)=C(C2=C(Cl)C(=O)c3ccccc3C2=O)C(=O)c2ccccc21`, the result in series [1], in [3], in [6] and in [7] was Active. Further, the IC50 in series [2] is 4.59 µM; in series [4], 4.25 µM; in series [5], above 10 µM.
